Data reported in US7758886B2, “Pharmaceutical aerosol composition” (Pari GmbH, priority 2003, dated 2010).
Values after ≈ are worked out from the molar mass of the structure shown.

Tests used:
[1] = Colloidal solubilization of corticosteroid with non-ionic surfactant and lecithin (Lipoid S 100); type: physicochemical; conditions: for solubility: pH 4.5, aqueous with cosolvent or surfactant or cyclodextrin
Method: In analogy to example 2, colloidal solutions of budesonide were prepared using polysorbate 80 as non-ionic surfactant component (instead of tyloxapol) and lecithin of the commercial grade, Lipoid S 100, as phospholipid component. Citric acid and sodium citrate were used as buffer system to adjust the pH to 4.5. Sodium chloride (0.846% w/w) was used as osmotic excipient. Disodium edetate (0.01% w/w) was incorporated as stabilizer preventing oxidation.
The taste of the samples was acceptable. The average diameter of the colloidal structures ranged from about 40 to about 50 nm, with polydispersity indices of 0.2 to 0.3. The colloidal solution with the lowest concentration of the non-ionic surfactant and phospholipid component was also investigated by small angle X-ray scattering, which indicated the presence of colloidal structures which were probably in the form of unilamellar liposomes.
(§1) In analogy to example 9, colloidal solutions of budesonide were prepared using vitamin E TPGS as non-ionic surfactant component and lecithin of the commercial grade, Lipoid S 100, as phospholipid component. The other excipients and their content remained the same as in example 9.
The taste of the samples was acceptable. The particles size of the colloidal structures was about 50 to 55 nm, with polydispersity indices of 0.2 to 0.3.
as §1, with “using both” for “using”, “TPGS and polysorbate 80 in combination” for “TPGS”
In analogy to example 9, colloidal solutions of budesonide were prepared using macrogol-15-hydroxystearate as non-ionic surfactant component and lecithin of the commercial grade, Lipoid S 100, as phospholipid component. The other excipients and their content remained the same as in example 9.
In analogy to example 9, colloidal solutions of were prepared using polysorbate 80 as non-ionic surfactant component and lecithin of the commercial grade, Lipoid S 100, as phospholipid component. However, fluticasone propionate was used instead of budesonide as poorly water soluble active agent. The other excipients and their content remained the same as in example 9.

[2] = Saturation solubility of budesonide in buffered aqueous tyloxapol / DMPC solutions (0.22 μm filtrate); type: physicochemical; conditions: for solubility: buffered aqueous tyloxapol/DMPC solution, aqueous with cosolvent or surfactant or cyclodextrin, thermodynamic from solid
Method: Buffered aqueous solutions of tyloxapol, DMPC and tyloxapol in a mixture with DMPC were prepared. The saturation solubility of budesonide in these solutions was measured by adding an excess of budesonide and treating the sample with heat and ultrasound and subsequently allowing it to stand for equilibration. The equilibrated samples were filtered through a membrane filter with a poor width of 0.22 μm and the content of budesonide in the filtrate was determined.

CCC(=O)O[C@]1(C(=O)SCF)[C@H](C)C[C@H]2[C@@H]3C[C@H](F)C4=CC(=O)C=C[C@]4(C)[C@@]3(F)[C@@H](O)C[C@@]21C [Fluticasone prop., fluticasone propionate]
Fluticasone prop. solubilized ([1]; Polysorbate 80 0.10 wt.%, Lipoid S100 1.0 wt.%): 0.07 mg/mL | solubility ([1]; Polysorbate 80 0.50 wt.%, Lipoid S100 3.0 wt.%, read-out: Fluticasone prop. solubilized): 180 µg/mL

CCCC1O[C@@H]2C[C@H]3[C@@H]4CCC5=CC(=O)C=C[C@]5(C)[C@H]4[C@@H](O)C[C@]3(C)[C@]2(C(=O)CO)O1 (stereo partly shown) [Budesonide, budesonide]
solubility ([1]; Polysorbate 80 0.10 wt.%, Lipoid S100 1.0 wt.%, pH 4.5, read-out: Budesonide solubilized): 360 µg/mL | solubility ([1]; Polysorbate 80 0.15 wt.%, Lipoid S100 1.5 wt.%, pH 4.5, read-out: Budesonide solubilized): 430 µg/mL | solubility ([1]; Polysorbate 80 0.25 wt.%, Lipoid S100 1.5 wt.%, pH 4.5, read-out: Budesonide solubilized): 470 µg/mL | solubility ([1]; Polysorbate 80 0.40 wt.%, Lipoid S100 1.5 wt.%, pH 4.5, read-out: Budesonide solubilized): 500 µg/mL | solubility ([1]; Polysorbate 80 0.50 wt.%, Lipoid S100 2.0 wt.%, pH 4.5, read-out: Budesonide solubilized): 830 µg/mL | solubility ([1]; Polysorbate 80 0.50 wt.%, Lipoid S100 3.0 wt.%, pH 4.5, read-out: Budesonide solubilized): 1090 µg/mL | solubility ([1]; Solutrol HS 15 0.10 wt.%, Lipoid S100 1.5 wt.%, read-out: Budesonide solubilized): 430 µg/mL | solubility ([1]; Solutrol HS 15 0.25 wt.%, Lipoid S100 1.5 wt.%, read-out: Budesonide solubilized): 470 µg/mL | solubility ([1]; Solutrol HS 15 0.50 wt.%, Lipoid S100 1.5 wt.%, read-out: Budesonide solubilized): 480 µg/mL | solubility ([1]; Vitamin E TPGS 0.10 wt.%, Lipoid S100 1.0 wt.%, read-out: Budesonide solubilized): 370 µg/mL | solubility ([1]; Vitamin E TPGS 0.10 wt.%, Lipoid S100 1.5 wt.%, read-out: Budesonide solubilized): 440 µg/mL | solubility ([1]; Vitamin E TPGS 0.25 wt.%, Lipoid S100 1.5 wt.%, read-out: Budesonide solubilized): 460 µg/mL | solubility ([1]; Vitamin E TPGS 0.50 wt.%, Lipoid S100 1.5 wt.%, read-out: Budesonide solubilized): 480 µg/mL | solubility ([1]; Vitamin E TPGS 0.50 wt.%, Lipoid S100 2.0 wt.%, read-out: Budesonide solubilized): 800 µg/mL | solubility ([1]; vitamin E TPGS 0.04 wt.-%, polysorbate 80 0.06 wt.-%, lecithin 1.0 wt.-%, read-out: Budesonide colloidally solubilized concentration): 380 µg/mL | solubility ([1]; vitamin E TPGS 0.2 wt.-%, polysorbate 80 0.3 wt.-%, lecithin 3.0 wt.-%, read-out: Budesonide colloidally solubilized concentration): 950 µg/mL | solubility ([2]; Tyloxapol 0 wt %, DMPC 1 wt %): 20 µg/mL (≈ 46.5 µM) | solubility ([2]; Tyloxapol 1 wt %, DMPC 0.5 wt %): 268 µg/mL (≈ 622 µM) | solubility ([2]; Tyloxapol 1.5 wt %, DMPC 0 wt %): 204 µg/mL (≈ 474 µM) | Saturation concentration of budesonide in DMPC solutions ([2]; on further increasing the DMPC content): could not be increased
